Data published in patent publication US9302999B2, “Substituted triazoles as herbicides” (E. I. DU PONT DE NEMOURS AND COMPANY, priority 2012, dated 2016).

Tests used:
Type in all cases: in vivo
[1] = test system: sedge, umbrella (small-flower umbrella sedge, Cyperus difformis); experiment: Test C flooded paddy test: sedge, umbrella; settings: scale 0 to 100 (0 no effect, 100 complete control)
Procedure, shortened: (§1)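 Plants were grown to the 2-leaf stage, pots flooded to 3 cm above soil, and test compounds applied directly to the paddy water, with that depth held throughout. After 13 to 15 days in a greenhouse, injury was visually rated against controls on a 0 (no effect) to 100 (complete control) scale.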

[2] = test system: wheat (Triticum aestivum); experiment: Test A pre-/postemergence: wheat; settings: for Wheat plant response rating: Postemergence; for Plant response rating, Wheat: Preemergence
Procedure, shortened: (§2)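 Compounds, formulated with surfactant in non-phytotoxic solvent, were applied as a directed soil spray preemergence and as postemergence sprays to 2–10 cm, one- to two-leaf seedlings grown in loam soil blended with sand; visual injury, 0–100, assessed ~10 days post-treatment against untreated controls.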

[3] = test system: barnyardgrass (Echinochloa crus-galli); experiment: Test A pre-/postemergence: barnyardgrass; settings: for Barnyardgrass plant response rating: Postemergence; for Plant response rating, Barnyardgrass: Preemergence
Procedure, shortened: as §2

[4] = test system: velvetleaf (Abutilon theophrasti); experiment: Test A pre-/postemergence: velvetleaf; settings: for Velvetleaf plant response rating: Postemergence; for Plant response rating, Velvetleaf: Preemergence
Procedure, shortened: as §2

corn (Zea mays) = experiment: Test A pre-/postemergence: corn; settings: for Corn plant response rating: Postemergence; for Plant response rating, Corn: Preemergence
Procedure, shortened: as §2

[5] = test system: ducksalad (Heteranthera limosa); experiment: Test C flooded paddy test: ducksalad; settings: scale 0 to 100 (0 no effect, 100 complete control)
Procedure, shortened: as §1

[6] = test system: crabgrass, large (large crabgrass, Digitaria sanguinalis); experiment: Test A pre-/postemergence: crabgrass, large; settings: for Crabgrass, Large plant response rating: Postemergence; for Plant response rating, Crabgrass, Large: Preemergence
Procedure, shortened: as §2

[7] = test system: foxtail, giant (giant foxtail, Setaria faberii); experiment: Test A pre-/postemergence: foxtail, giant; settings: for Foxtail, Giant plant response rating: Postemergence; for Plant response rating, Foxtail, Giant: Preemergence
Procedure, shortened: as §2

[8] = test system: morningglory (Ipomoea spp.); experiment: Test A pre-/postemergence: morningglory; settings: for Morningglory plant response rating: Postemergence; for Plant response rating, Morningglory: Preemergence
Procedure, shortened: as §2

[9] = test system: pigweed (Amaranthus retroflexus); experiment: Test A pre-/postemergence: pigweed; settings: for Pigweed plant response rating: Postemergence; for Plant response rating, Pigweed: Preemergence
Procedure, shortened: as §2

rice (Oryza sativa) = experiment: Test C flooded paddy test: rice; settings: scale 0 to 100 (0 no effect, 100 complete control)
Procedure, shortened: as §1

[10] = test system: barnyardgrass (Echinochloa crus-galli); experiment: Test C flooded paddy test: barnyardgrass; settings: scale 0 to 100 (0 no effect, 100 complete control)
Procedure, shortened: as §1

[11] = Flood (flooded paddy test), 125 g ai/ha, visual rating after 13 to 15 days
[12] = Flood (flooded paddy test), 250 g ai/ha, visual rating after 13 to 15 days
[13] = 125 g ai/ha, 0 to 100 scale, 0 is no effect, 100 is complete control
[14] = 500 g ai/ha, visual rating on 0 to 100 scale (0 no effect, 100 complete control), approximately ten days
[15] = 125 g ai/ha, 0 to 100 scale (0 no effect, 100 complete control)
[16] = 500 g ai/ha, 0 to 100 scale, 0 is no effect, 100 is complete control
[17] = Flood (flooded paddy test), 62 g ai/ha, visual rating after 13 to 15 days

COc1nn(-c2ccc(C(F)(F)F)cc2)nc1C(O)c1ccnc(C(F)(F)F)c1 (stereo not drawn) [Compound 78]
Plant response rating, Sedge, Umbrella [1, 11]: 0 | Plant response rating, Sedge, Umbrella [1, 12]: 0 | Plant response rating, Sedge, Umbrella ([1]; Flood, 31 g ai/ha): 0 | Plant response rating, Sedge, Umbrella ([1]; Flood, 62 g ai/ha): 0 | Wheat plant response rating [2, 13]: 0 | Wheat plant response rating [2, 14]: 0 | Plant response rating, Wheat [2, 15]: 0 | Plant response rating, Wheat [2, 16]: 0 | Barnyardgrass plant response rating [3, 13]: 0 | Barnyardgrass plant response rating [3, 14]: 10 | Plant response rating, Barnyardgrass [3, 15]: 0 | Plant response rating, Barnyardgrass [3, 16]: 20 | Velvetleaf plant response rating [4, 13]: 10 | Velvetleaf plant response rating [4, 14]: 20 | Plant response rating, Velvetleaf [4, 15]: 10 | Plant response rating, Velvetleaf [4, 16]: 20 | Corn plant response rating (corn (Zea mays); [13]): 0 | Corn plant response rating (corn (Zea mays); [14]): 10 | Plant response rating, Corn (corn (Zea mays); [15]): 0 | Plant response rating, Corn (corn (Zea mays); [16]): 0 | Plant response rating, Ducksalad [5, 11]: 0 | Plant response rating, Ducksalad [5, 12]: 0 | Plant response rating, Ducksalad ([5]; Flood, 31 g ai/ha): 0 | Plant response rating, Ducksalad ([5]; Flood, 62 g ai/ha): 0 | Crabgrass, Large plant response rating [6, 13]: 10 | Crabgrass, Large plant response rating [6, 14]: 20 | Plant response rating, Crabgrass, Large [6, 15]: 60 | Plant response rating, Crabgrass, Large [6, 16]: 80 | Foxtail, Giant plant response rating [7, 13]: 10 | Foxtail, Giant plant response rating [7, 14]: 30 | Plant response rating, Foxtail, Giant [7, 15]: 20 | Plant response rating, Foxtail, Giant [7, 16]: 70 | Morningglory plant response rating [8, 13]: 0 | Morningglory plant response rating [8, 14]: 40 | Plant response rating, Morningglory [8, 15]: 0 | Plant response rating, Morningglory [8, 16]: 10 | Pigweed plant response rating [9, 13]: 50 | Pigweed plant response rating [9, 14]: 90 | Plant response rating, Pigweed [9, 15]: 60 | Plant response rating, Pigweed [9, 16]: 70 | Plant response rating, Rice (rice (Oryza sativa); [11]): 0 | Plant response rating, Rice (rice (Oryza sativa); [12]): 0 | Plant response rating, Rice (rice (Oryza sativa); Flood, 31 g ai/ha): 0 | Plant response rating, Rice (rice (Oryza sativa); Flood, 62 g ai/ha): 0 | Plant response rating, Barnyardgrass [10, 11]: 0 | Plant response rating, Barnyardgrass [10, 12]: 20 | Plant response rating, Barnyardgrass ([10]; Flood, 31 g ai/ha): 0 | Plant response rating, Barnyardgrass ([10]; Flood, 62 g ai/ha): 0

Cc1nn(-c2ccc(F)cc2)nc1Cn1cc(C(F)(F)F)nc1Cl [Compound 35]
Plant response rating, Sedge, Umbrella [1, 17]: 75 | Plant response rating, Sedge, Umbrella [1, 11]: 80 | Plant response rating, Sedge, Umbrella [1, 12]: 80 | Plant response rating, Sedge, Umbrella ([1]; Flood, 31 g ai/ha): 75 | Wheat plant response rating [2, 13]: 10 | Wheat plant response rating [2, 14]: 60 | Plant response rating, Wheat [2, 15]: 0 | Plant response rating, Wheat [2, 16]: 0 | Barnyardgrass plant response rating [3, 13]: 40 | Barnyardgrass plant response rating [3, 14]: 90 | Plant response rating, Barnyardgrass [3, 15]: 60 | Plant response rating, Barnyardgrass [3, 16]: 90 | Velvetleaf plant response rating [4, 13]: 70 | Velvetleaf plant response rating [4, 14]: 100 | Plant response rating, Velvetleaf [4, 15]: 30 | Plant response rating, Velvetleaf [4, 16]: 50 | Corn plant response rating (corn (Zea mays); [13]): 20 | Corn plant response rating (corn (Zea mays); [14]): 50 | Plant response rating, Corn (corn (Zea mays); [15]): 10 | Plant response rating, Corn (corn (Zea mays); [16]): 30 | Plant response rating, Ducksalad [5, 17]: 65 | Plant response rating, Ducksalad [5, 11]: 70 | Plant response rating, Ducksalad [5, 12]: 75 | Plant response rating, Ducksalad ([5]; Flood, 31 g ai/ha): 40 | Crabgrass, Large plant response rating [6, 13]: 80 | Crabgrass, Large plant response rating [6, 14]: 90 | Plant response rating, Crabgrass, Large [6, 15]: 90 | Plant response rating, Crabgrass, Large [6, 16]: 100 | Foxtail, Giant plant response rating [7, 13]: 60 | Foxtail, Giant plant response rating [7, 14]: 90 | Plant response rating, Foxtail, Giant [7, 15]: 80 | Plant response rating, Foxtail, Giant [7, 16]: 100 | Morningglory plant response rating [8, 13]: 90 | Morningglory plant response rating [8, 14]: 100 | Plant response rating, Morningglory [8, 15]: 20 | Plant response rating, Morningglory [8, 16]: 50 | Pigweed plant response rating [9, 13]: 100 | Pigweed plant response rating [9, 14]: 100 | Plant response rating, Pigweed [9, 15]: 90 | Plant response rating, Pigweed [9, 16]: 100 | Plant response rating, Rice (rice (Oryza sativa); [17]): 0 | Plant response rating, Rice (rice (Oryza sativa); [11]): 0 | Plant response rating, Rice (rice (Oryza sativa); [12]): 0 | Plant response rating, Rice (rice (Oryza sativa); Flood, 31 g ai/ha): 0 | Plant response rating, Barnyardgrass [10, 17]: 0 | Plant response rating, Barnyardgrass [10, 11]: 0 | Plant response rating, Barnyardgrass [10, 12]: 30 | Plant response rating, Barnyardgrass ([10]; Flood, 31 g ai/ha): 0
